The text below walks through data of paper PMC2201222 (The Journal of General Physiology, 1968).

The nature of series [1]: Electrical resistance and potential of thin lipid. The following applies: about 22C, unbuffered pH 5.6. Set-up: species or system sheep.
A short description of series [2]: Activity toward Na+-K+ transport across sheep red cell and thin lipid membranes. Conditions: for selectivity for K+ over Na+ (section heading of Table II): sheep red cells and thin lipid membranes.
The format of series [3] is physicochemical. Conditions: read-out by bilayer resistance.
The conditions of series [4]: general statement, no method or reference given; cited from earlier work.

As for `CO[C@@H]1C[C@@H](C[C@H]2CC[C@H](C)[C@H]([C@@H](C)C(=O)O)O2)O[C@]2(O[C@](C)([C@H]3CC[C@@](C)([C@@H]4O[C@@H]([C@H]5O[C@@](O)(CO)[C@H](C)C[C@@H]5C)C[C@@H]4C)O3)C[C@H]2C)[C@@H]1C` [Nigericin], the “Bilayers, TNa/TK (ratio of the transference number for Na+ to that for K+)” value in series [1] (compound 10^-6 M) is on record as less than 0.I. In series [2], the “selectivity for K+ over Na+ (section heading of Table II)” value (shortened to “selectivity for K+ over Na+”) is given as “moderate to low selectivity”.

Turning to `C[C@@H]1C[C@H]2CC[C@H](O2)[C@H](C)C(=O)O[C@@H](C)C[C@@H]2CC[C@@H](O2)[C@@H](C)C(=O)O[C@H](C)C[C@H]2CC[C@H](O2)[C@H](C)C(=O)O[C@@H](C)C[C@@H]2CC[C@@H](O2)[C@@H](C)C(=O)O1` [Nonactin, nonactin], the “Bilayers, TNa/TK (ratio of the transference number for Na+ to that for K+)” value in series [1] (compound 10^-7 M) is reported as less than 0.01. For the same molecule, the “selectivity for K+ over Na+” value in series [2] is reported as “high selectivity”.

Turning to `C=C1NC(=O)CC[C@@H](C(=O)O)NC(=O)[C@H](NC(=O)[C@H](CCCCN)NC(=O)[C@@H](N)Cc2c[nH]c3ccccc23)CSC[C@@H](C(=O)N[C@@H]2C(=O)N3CCC[C@H]3C(=O)NCC(=O)N[C@H](C(=O)N[C@H](C(=O)N[C@@H]3C(=O)NCC(=O)N[C@@H](C)C(=O)N[C@@H](CC(C)C)C(=O)N[C@@H](CCC(N)=O)C(=O)N/C(=C/C)C(=O)N[C@H](C(=O)N[C@@H](Cc4ccccc4)C(=O)N[C@@H](CC(C)C)C(=O)N[C@@H](CCC(N)=O)C(=O)N[C@@H]4C(=O)N[C@@H](CC(C)C)C(=O)N[C@H]5C(=O)N[C@@H](CSC4C)C(=O)NC(=O)[C@H](CC(N)=O)N[C@H](C(=O)N[C@@H](CCCCN)C(=O)N[C@H](C(=O)NC(=C)C(=O)N[C@@H](CCCCN)C(=O)O)[C@@H](C)CC)CSC5C)CSC3C)C(C)C)CSC2C)N[C@@H](CC(C)C)C(=O)NC1=O` (some centres unmarked) [Subtilin], the “activity on cation selectivity (section heading of Table II)” value (shortened to “activity on cation selectivity”) in series [2] (maximum conc. tested 10^-6 M) is on record as “Inactive”.

In the case of `CC(C)[C@@H]1NC(=O)[C@H](C)OC(=O)[C@@H](C(C)C)NC(=O)[C@@H](C(C)C)OC(=O)[C@H](C(C)C)NC(=O)[C@H](C)OC(=O)[C@@H](C(C)C)NC(=O)[C@@H](C(C)C)OC(=O)[C@H](C(C)C)NC(=O)[C@H](C)OC(=O)[C@@H](C(C)C)NC(=O)[C@@H](C(C)C)OC1=O` [Valinomycin, valinomycin], the “Partition coefficient between decane and NaCl (0.1 M), compared with KCl (0.1 M)” value in series [3] (aqueous phase NaCl (0.1 M)) is “the same”. Besides, the “Partition coefficient between decane and pure H2O, compared with KCl (0.1 M)” value in series [3] (aqueous phase pure H2O) was “the same”. For the same molecule, the solubility in water entry in series [4] was “almost insoluble”.

With Bacitracin A, in series [2] (maximum conc. tested 10^-6 M), the “activity on cation selectivity” value is “Inactive”.

With Gramicidin A, the “selectivity for K+ over Na+” value in series [2] is recorded as “moderate to low selectivity”.

Consider Gramicidin B, for which, in series [1] (compound 10^-6 M), the “Bilayers, TNa/TK (ratio of the transference number for Na+ to that for K+)” value stood at 0.4. The “selectivity for K+ over Na+” value in series [2] was “moderate to low selectivity”.

With Gramicidin C, the “selectivity for K+ over Na+” value in series [2] was “moderate to low selectivity”.

In the case of Phalloidin, the “activity on cation selectivity” value in series [2] (maximum conc. tested 10^-4 M) is recorded as “Inactive”.

As for Polymixin B, the “activity on cation selectivity” value in series [2] (maximum conc. tested 10^-5 M) is given as “Inactive”.

As to Vernamycin, the “activity on cation selectivity” value in series [2] (maximum conc. tested 10^-5 M) was “Inactive”.

Viridogrisein: the “activity on cation selectivity” value in series [2] (maximum conc. tested 10^-6 M) is “Inactive”.
